Measured values: PMC5218480 (PLoS ONE, 2017)

Test system: MV-4-11 cells
Assay: Gene expression microarray analysis (Affymetrix PrimeView) and GSEA
Type: cell-based, human
Parameters: RFU PODN (11730768_x_at) / Fold change /veh PODN (11730768_x_at) / RFU LINC00158 (11744669_a_at) / Fold change /veh LINC00158 (11744669_a_at) / RFU DUSP10 (11751237_a_at) / Fold change /veh DUSP10 (11751237_a_at) / RFU ID3 (11757404_x_at) / Fold change /veh ID3 (11757404_x_at) / RFU PLEKHG5 (11737974_s_at) / Fold change /veh PLEKHG5 (11737974_s_at) / RFU LRRC4B (11730491_at) / Fold change /veh LRRC4B (11730491_at) / RFU GIMAP4 (11747438_a_at) / Fold change /veh GIMAP4 (11747438_a_at) / RFU KRT8 (11758183_x_at) / Fold change /veh KRT8 (11758183_x_at) / RFU CNN1 (11734310_a_at) / Fold change /veh CNN1 (11734310_a_at) / RFU VPS37D (11726825_at) / Fold change /veh VPS37D (11726825_at) / RFU C10orf10 (11716522_x_at) / Fold change /veh C10orf10 (11716522_x_at) / RFU KIR2DL2 /// KIR2DL4 /// KIR2DL5A /// KIR2DL5B /// KIR2DS1 /// KIR2DS2 /// KIR2DS3 /// KIR2DS4 /// KIR3DL3 /// KIR3DL3 /// KIR3DS1 (11738374_at) / Fold change /veh KIR2DL2 /// KIR2DL4 /// KIR2DL5A /// KIR2DL5B /// KIR2DS1 /// KIR2DS2 /// KIR2DS3 /// KIR2DS4 /// KIR3DL3 /// KIR3DL3 /// KIR3DS1 (11738374_at) / RFU C1QL1 (11718748_at) / Fold change /veh C1QL1 (11718748_at) / RFU TMPRSS4 (11747572_a_at) / Fold change /veh TMPRSS4 (11747572_a_at) / RFU HAMP (11756126_x_at) / Fold change /veh HAMP (11756126_x_at) / RFU RNFT2 (11725882_a_at) / Fold change /veh RNFT2 (11725882_a_at) / RFU NR4A2 (11747474_a_at) / Fold change /veh NR4A2 (11747474_a_at) / RFU ABCC12 (11746883_a_at) / Fold change /veh ABCC12 (11746883_a_at) / RFU TMEM136 (11760407_x_at) / Fold change /veh TMEM136 (11760407_x_at) / RFU CLDN22 /// WWC2 (11732394_at) / Fold change /veh CLDN22 /// WWC2 (11732394_at) / RFU HLA-DPB1 (11760878_x_at) / Fold change /veh HLA-DPB1 (11760878_x_at) / RFU SPINT1 (11716480_a_at) / Fold change /veh SPINT1 (11716480_a_at) / RFU GAP43 (11754022_s_at) / Fold change /veh GAP43 (11754022_s_at) / RFU A4GNT (11735810_at) / Fold change /veh A4GNT (11735810_at) / RFU PRB3 (11715151_x_at) / Fold change /veh PRB3 (11715151_x_at) / RFU TUBB4B (11761932_at) / Fold change /veh TUBB4B (11761932_at) / RFU CAPN14 (11732068_a_at) / Fold change /veh CAPN14 (11732068_a_at) / RFU TMCC2 (11721928_a_at) / Fold change /veh TMCC2 (11721928_a_at) / RFU IRGQ (11745062_a_at) / Fold change /veh IRGQ (11745062_a_at) / RFU FAM174B (11720279_a_at) / Fold change /veh FAM174B (11720279_a_at) / RFU TMPRSS4 (11748680_a_at) / Fold change /veh TMPRSS4 (11748680_a_at) / RFU FAM212B (11763350_a_at) / Fold change /veh FAM212B (11763350_a_at) / RFU PLEKHG5 (11743358_a_at) / Fold change /veh PLEKHG5 (11743358_a_at) / RFU ZSCAN30 (11745921_a_at) / Fold change /veh ZSCAN30 (11745921_a_at) / RFU CMKLR1 (11741424_a_at) / Fold change /veh CMKLR1 (11741424_a_at) / RFU LOC101060620 /// MAPK8IP1 (11723275_at) / Fold change /veh LOC101060620 /// MAPK8IP1 (11723275_at) / RFU SPTSSB (11747773_x_at) / Fold change /veh SPTSSB (11747773_x_at) / RFU PRSS12 (11739890_at) / Fold change /veh PRSS12 (11739890_at) / RFU BIN1 (11741810_x_at) / Fold change /veh BIN1 (11741810_x_at) / RFU WNT11 (11732464_a_at) / Fold change /veh WNT11 (11732464_a_at) / RFU C10orf10 (11716521_a_at) / Fold change /veh C10orf10 (11716521_a_at) / RFU C5orf56 (11738089_at) / Fold change /veh C5orf56 (11738089_at) / RFU CYB561 (11721691_x_at) / Fold change /veh CYB561 (11721691_x_at) / RFU ANKRD19P (11752326_a_at) / Fold change /veh ANKRD19P (11752326_a_at) / RFU OR2T12 /// OR2T33 /// OR2T8 (11738714_s_at) / Fold change /veh OR2T12 /// OR2T33 /// OR2T8 (11738714_s_at) / RFU VCAN (11748164_a_at) / Fold change /veh VCAN (11748164_a_at) / RFU JSRP1 (11732532_at) / Fold change /veh JSRP1 (11732532_at) / RFU KRTAP10-11 (11738290_x_at) / Fold change /veh KRTAP10-11 (11738290_x_at) / RFU MYO3A (11730013_a_at) / Fold change /veh MYO3A (11730013_a_at) / RFU EBF3 (11725865_a_at) / Fold change /veh EBF3 (11725865_a_at) / RFU CAMK2N1 (11719241_x_at) / Fold change /veh CAMK2N1 (11719241_x_at) / RFU C5orf56 (11738088_a_at) / Fold change /veh C5orf56 (11738088_a_at) / RFU OLFML3 (11715873_a_at) / Fold change /veh OLFML3 (11715873_a_at) / RFU LOC100653217 /// NTM (11731650_a_at) / Fold change /veh LOC100653217 /// NTM (11731650_a_at) / RFU MAPK11 (11762145_a_at) / Fold change /veh MAPK11 (11762145_a_at) / RFU FIZ1 (11724087_x_at) / Fold change /veh FIZ1 (11724087_x_at) / RFU OASL (11726364_x_at) / Fold change /veh OASL (11726364_x_at) / RFU SOX15 (11748057_x_at) / Fold change /veh SOX15 (11748057_x_at) / RFU CD79A (11719716_a_at) / Fold change /veh CD79A (11719716_a_at) / RFU HIST1H1D (11736915_at) / Fold change /veh HIST1H1D (11736915_at) / RFU CASKIN2 (11723855_a_at) / Fold change /veh CASKIN2 (11723855_a_at) / RFU LOC730098 (11760151_x_at) / Fold change /veh LOC730098 (11760151_x_at) / RFU OR4N2 (11742367_at) / Fold change /veh OR4N2 (11742367_at) / RFU PRRT2 (11749266_a_at) / Fold change /veh PRRT2 (11749266_a_at) / RFU SNX32 (11753110_a_at) / Fold change /veh SNX32 (11753110_a_at) / RFU CDHR5 (11726645_a_at) / Fold change /veh CDHR5 (11726645_a_at) / RFU RCAN1 (11760418_a_at) / Fold change /veh RCAN1 (11760418_a_at) / RFU FAM167A (11723789_a_at) / Fold change /veh FAM167A (11723789_a_at) / RFU FAM26E (11764081_at) / Fold change /veh FAM26E (11764081_at) / RFU ISYNA1 (11749810_s_at) / Fold change /veh ISYNA1 (11749810_s_at) / RFU ACY1 (11761880_at) / Fold change /veh ACY1 (11761880_at) / RFU 11764098_at / Fold change /veh 11764098_at / RFU SAMD14 (11745864_x_at) / Fold change /veh SAMD14 (11745864_x_at) / RFU NPB (11741838_a_at) / Fold change /veh NPB (11741838_a_at) / RFU TMPRSS6 (11731388_a_at) / Fold change /veh TMPRSS6 (11731388_a_at) / RFU KRTAP10-2 (11738614_at) / Fold change /veh KRTAP10-2 (11738614_at) / RFU ARHGAP8 /// PRR5-ARHGAP8 (11727945_x_at) / Fold change /veh ARHGAP8 /// PRR5-ARHGAP8 (11727945_x_at) / RFU KRTAP5-7 /// NADSYN1 (11734609_at) / Fold change /veh KRTAP5-7 /// NADSYN1 (11734609_at) / RFU RASL12 (11751679_a_at) / Fold change /veh RASL12 (11751679_a_at) / RFU CDKN2B (11736163_a_at) / Fold change /veh CDKN2B (11736163_a_at) / RFU PRF1 (11729649_at) / Fold change /veh PRF1 (11729649_at) / RFU, ZNF638 /// ZNF638-IT1 / Fold change vs veh, ZNF638 /// ZNF638-IT1 / RFU, PANK3 / Fold change vs veh, PANK3 / RFU, SH3YL1 / Fold change vs veh, SH3YL1 / RFU, ZEB2 / Fold change vs veh, ZEB2 / RFU, NRIP1 / Fold change vs veh, NRIP1 / RFU, PTTG1IP / Fold change vs veh, PTTG1IP / RFU, CAPN2 / Fold change vs veh, CAPN2 / RFU, MED14 / Fold change vs veh, MED14 / RFU, SNORA58 / Fold change vs veh, SNORA58 / RFU, C1orf63 / Fold change vs veh, C1orf63 / RFU, LRRFIP1 / Fold change vs veh, LRRFIP1 / RFU, NDUFAF7 / Fold change vs veh, NDUFAF7 / RFU, SLC12A2 / Fold change vs veh, SLC12A2 / RFU, IBTK / Fold change vs veh, IBTK / RFU, ESF1 / Fold change vs veh, ESF1 / Fold change vs veh, TMEM50B / RFU, TAOK1 / Fold change vs veh, TAOK1 / RFU, ACBD3 / Fold change vs veh, ACBD3 / RFU, TMA16 / Fold change vs veh, TMA16 / RFU, RWDD3 / Fold change vs veh, RWDD3 / RFU, BCAT1 / Fold change vs veh, BCAT1 / RFU, EDEM3 / Fold change vs veh, EDEM3 / RFU, TMEM33 / Fold change vs veh, TMEM33 / RFU, WDR75 / Fold change vs veh, WDR75 / RFU, AHCTF1 / Fold change vs veh, AHCTF1 / RFU, TFRC / Fold change vs veh, TFRC / RFU, ZDHHC17 / Fold change vs veh, ZDHHC17 / RFU, NOM1 / Fold change vs veh, NOM1 / RFU, ARL8B / Fold change vs veh, ARL8B / RFU, ZBTB11 / Fold change vs veh, ZBTB11 / RFU, TAMM41 / Fold change vs veh, TAMM41 / RFU, KIAA1704 /// LOC100996395 / Fold change vs veh, KIAA1704 /// LOC100996395 / RFU, ING1 / Fold change vs veh, ING1 / RFU, TRMT61B / Fold change vs veh, TRMT61B / RFU, FUBP3 / Fold change vs veh, FUBP3 / RFU, TP53 / Fold change vs veh, TP53 / RFU, TNKS2 / Fold change vs veh, TNKS2 / RFU, ZFP14 / Fold change vs veh, ZFP14 / RFU, ACTR2 / Fold change vs veh, ACTR2 / RFU, PPP3R1 / Fold change vs veh, PPP3R1 / RFU, PIK3R1 / Fold change vs veh, PIK3R1 / RFU, HNRNPA1 / Fold change vs veh, HNRNPA1 / RFU, RNF170 / Fold change vs veh, RNF170 / RFU, ZNF28 / Fold change vs veh, ZNF28 / RFU, RNGTT / Fold change vs veh, RNGTT / RFU, OGT / Fold change vs veh, OGT / RFU, BRD1 / Fold change vs veh, BRD1 / RFU, MARS / Fold change vs veh, MARS / RFU, ZNF655 / Fold change vs veh, ZNF655 / RFU, FAHD1 / Fold change vs veh, FAHD1 / RFU, BDP1 / Fold change vs veh, BDP1 / RFU, LRRCC1 / Fold change vs veh, LRRCC1 / RFU, ARID1A / Fold change vs veh, ARID1A / RFU, ZNF146 / Fold change vs veh, ZNF146 / RFU, ZNF330 / Fold change vs veh, ZNF330 / RFU, GPN3 / Fold change vs veh, GPN3 / RFU, C9orf123 / Fold change vs veh, C9orf123 / RFU, N4BP2L2 / Fold change vs veh, N4BP2L2 / RFU, ARFIP1 / Fold change vs veh, ARFIP1 / RFU, FAM179B / Fold change vs veh, FAM179B / RFU, BCL10 / Fold change vs veh, BCL10 / RFU, UHRF1BP1L / Fold change vs veh, UHRF1BP1L / RFU, BET1 / Fold change vs veh, BET1 / RFU, CNOT2 / Fold change vs veh, CNOT2 / RFU, ZNF268 / Fold change vs veh, ZNF268 / Fold change vs veh, ZNF507 / RFU, DGCR2 / Fold change vs veh, DGCR2 / RFU, WDSUB1 / Fold change vs veh, WDSUB1 / Fold change vs veh, HSP90B1 /// MIR3652 / RFU, ADSS / Fold change vs veh, ADSS / RFU, GK / Fold change vs veh, GK / RFU, ZNF148 / Fold change vs veh, ZNF148 / RFU, TAF9 / Fold change vs veh, TAF9 / RFU, SLC1A5 / Fold change vs veh, SLC1A5 / RFU, SLMO2 / Fold change vs veh, SLMO2 / RFU, ABCC4 / Fold change vs veh, ABCC4 / RFU, LOC101060439 /// RAP1B / Fold change vs veh, LOC101060439 /// RAP1B / RFU, RFX7 / Fold change vs veh, RFX7 / RFU, GTPBP10 / Fold change vs veh, GTPBP10 / RFU, CNEP1R1 / Fold change vs veh, CNEP1R1 / RFU, BIVM-ERCC5 /// ERCC5 / Fold change vs veh, BIVM-ERCC5 /// ERCC5 / RFU, ILF3 / Fold change vs veh, ILF3 / RFU 11762660_at / Fold change /veh 11762660_at / RFU VCAN (11757783_s_at) / Fold change /veh VCAN (11757783_s_at) / RFU DDX43 (11728927_at) / Fold change /veh DDX43 (11728927_at) / RFU KRT8 (11758188_x_at) / Fold change /veh KRT8 (11758188_x_at) / RFU NKD1 (11759106_at) / Fold change /veh NKD1 (11759106_at) / RFU SRD5A1 (11742802_a_at) / Fold change /veh SRD5A1 (11742802_a_at) / RFU TPSAB1 /// TPSB2 (11721975_s_at) / Fold change /veh TPSAB1 /// TPSB2 (11721975_s_at) / RFU GSTM3 (11746129_a_at) / Fold change /veh GSTM3 (11746129_a_at) / RFU IL23R (11737362_x_at) / Fold change /veh IL23R (11737362_x_at) / RFU TMEM51 (11727254_a_at) / Fold change /veh TMEM51 (11727254_a_at) / RFU PIWIL2 (11732686_x_at) / Fold change /veh PIWIL2 (11732686_x_at) / RFU ORM1 (11744905_x_at) / Fold change /veh ORM1 (11744905_x_at) / RFU CCDC152 (11743942_at) / Fold change /veh CCDC152 (11743942_at) / RFU ECM1 (11717891_a_at) / Fold change /veh ECM1 (11717891_a_at) / RFU IL23R (11748794_a_at) / Fold change /veh IL23R (11748794_a_at) / RFU TNFAIP8L3 (11732012_x_at) / Fold change /veh TNFAIP8L3 (11732012_x_at) / RFU MBOAT4 (11741988_at) / Fold change /veh MBOAT4 (11741988_at) / RFU 11764193_at / Fold change /veh 11764193_at / RFU TMEM53 (11763286_at) / Fold change /veh TMEM53 (11763286_at) / RFU MAGEB2 (11727129_at) / Fold change /veh MAGEB2 (11727129_at) / RFU TMEM200A (11744735_a_at) / Fold change /veh TMEM200A (11744735_a_at) / RFU CCDC152 (11751479_a_at) / Fold change /veh CCDC152 (11751479_a_at) / RFU FAM211A (11726209_a_at) / Fold change /veh FAM211A (11726209_a_at) / RFU RGS16 (11746705_a_at) / Fold change /veh RGS16 (11746705_a_at) / RFU VCAN (11755009_s_at) / Fold change /veh VCAN (11755009_s_at) / RFU RHOB (11743442_s_at) / Fold change /veh RHOB (11743442_s_at) / RFU RGS16 (11720943_a_at) / Fold change /veh RGS16 (11720943_a_at) / RFU RGS16 (11720944_at) / Fold change /veh RGS16 (11720944_at) / RFU, VPS4B / Fold change vs veh, VPS4B / RFU, CREB1 / Fold change vs veh, CREB1 / RFU, DNAJC13 / Fold change vs veh, DNAJC13 / RFU, GNAQ / Fold change vs veh, GNAQ / RFU, CDK5R1 / Fold change vs veh, CDK5R1 / RFU, ZRANB3 / Fold change vs veh, ZRANB3 / RFU, CUL4A / Fold change vs veh, CUL4A / RFU, CCNY / Fold change vs veh, CCNY / RFU, UFL1 / Fold change vs veh, UFL1 / RFU, COG3 / Fold change vs veh, COG3 / RFU, DIAPH2 / Fold change vs veh, DIAPH2 / RFU, SKA2 / Fold change vs veh, SKA2 / RFU, AFF3 / Fold change vs veh, AFF3 / RFU, LMF1 / Fold change vs veh, LMF1 / RFU, IPO11 / Fold change vs veh, IPO11 / RFU, DFFB / Fold change vs veh, DFFB / RFU, FOXP1 / Fold change vs veh, FOXP1 / RFU, CARD8 / Fold change vs veh, CARD8 / RFU, STRN3 / Fold change vs veh, STRN3 / RFU, ADK / Fold change vs veh, ADK / RFU, RASSF2 / Fold change vs veh, RASSF2 / RFU, WIPF1 / Fold change vs veh, WIPF1 / RFU, LARP1B / Fold change vs veh, LARP1B / RFU, RASA1 / Fold change vs veh, RASA1 / RFU, RB1 / Fold change vs veh, RB1 / RFU, PPFIA1 / Fold change vs veh, PPFIA1 / RFU, MAT2A / Fold change vs veh, MAT2A / RFU, CCT5 / Fold change vs veh, CCT5 / RFU, WDR92 / Fold change vs veh, WDR92 / RFU, CUX1 / Fold change vs veh, CUX1 / RFU, TTC7A / Fold change vs veh, TTC7A / RFU, TMEM135 / Fold change vs veh, TMEM135 / RFU, DEPTOR / Fold change vs veh, DEPTOR / RFU, CPM / Fold change vs veh, CPM / RFU, DNAJB6 / Fold change vs veh, DNAJB6 / RFU, CACNA2D3 / Fold change vs veh, CACNA2D3 / RFU, DTX4 / Fold change vs veh, DTX4 / RFU, TFCP2 / Fold change vs veh, TFCP2 / RFU, GMCL1 /// GMCL1P1 / Fold change vs veh, GMCL1 /// GMCL1P1 / RFU, AEBP2 / Fold change vs veh, AEBP2 / RFU, SNHG1 /// SNORD22 /// SNORD25 /// SNORD26 /// SNORD27 /// SNORD28 /// SNORD29 /// SNORD31 / Fold change vs veh, SNHG1 /// SNORD22 /// SNORD25 /// SNORD26 /// SNORD27 /// SNORD28 /// SNORD29 /// SNORD31 / Fold change (Aza/veh), C12orf56 (ProbeSet 11735607_a_at) / Fold change (ACY-1035/veh), C12orf56 (ProbeSet 11735607_a_at) / Fold change (Aza/veh), FGFR1OP (ProbeSet 11751329_s_at) / Fold change (ACY-1035/veh), FGFR1OP (ProbeSet 11751329_s_at) / Fold change (Aza/veh), VPS36 (ProbeSet 11739960_a_at) / Fold change (ACY-1035/veh), VPS36 (ProbeSet 11739960_a_at) / RFU SYPL1 (11715823_x_at) / Fold change /veh SYPL1 (11715823_x_at) / RFU IGFBP7 (11715501_s_at) / Fold change /veh IGFBP7 (11715501_s_at) / RFU REEP3 (11722064_at) / Fold change /veh REEP3 (11722064_at) / RFU IGLL1 (11728026_x_at) / Fold change /veh IGLL1 (11728026_x_at): dose or concentration left out as unconfirmed
Conditions: MV-4-11 cells, 48 hours

Nc1ccc(-c2cccs2)cc1NC(=O)c1ccc2c(c1)cc(C1CC1)n2CCN1CCOCC1 [ACY-1035]
Fold change /veh RGS16 (11720944_at): 0.97
